Experimental data published in US20080194658A1, “Sterol Carrier Protein-2 Inhibitors for Lowering Cholesterol and Triglyceride Levels in Mammals” (priority 2006, published 2008).

Tests used:
[1] = Growth rate of young rats upon oral administration; assay type: in vivo; conditions: young rats starting at 20 days of age, 5 days/week at various dosages (FIG. 1)
Method: FIG. 1 is a graph showing growth rates of young rats (starting at 20 days of age) upon oral administration of N-(4-{[4-(3,4-dichlorophenyl)-1,3-thiazol-2-yl]amino}phenyl)acetamide hydrobromide, whereby the effect on growth rate was insignificant, whereby the drug was administered 5 days/week at various dosages, whereby weight was measured every day during the treatment regimen (Monday-Friday), whereby the data is shown in three groups to compensate for variations in growth rate as the animals aged, whereby the listed days represent the number of days after the initial first administration, and whereby the bars represent the average growth rate±Standard deviation.
Mammalian species (i.e., rats) were used. Rats were fed a standard diet (3.5% fat, <0.02% cholesterol). Weaned rats were grouped into treated and controls. Rats were chosen as the testing animal so that 0.5 ml of blood samples could be taken for testing. Rats were anesthetized first in an induction chamber with isoflurane and oxygen (100%). Once anesthetized rats were positioned dorsally for the blood draw from the jugular or ventral tail vein. […]
N-(4-{[4-(3,4-dichlorophenyl)-1,3-thiazol-2-yl]amino}phenyl)acetamide hydrobromide was mixed with DMSO (solvent) in increasing dosages, which were feed to laboratory rats. […] Daily observations were recorded concerning (i) weight changes and (ii) mortality. […]

rats [2] = assay: Serum ALT levels in rats (liver function); assay type: in vivo; conditions: oral, various dosages for 5 days (FIG. 3)
Method: (§1) Mammalian species (i.e., rats) were used. Rats were fed a standard diet (3.5% fat, <0.02% cholesterol). Weaned rats were grouped into treated and controls. Rats were chosen as the testing animal so that 0.5 ml of blood samples could be taken for testing. Rats were anesthetized first in an induction chamber with isoflurane and oxygen (100%). Once anesthetized rats were positioned dorsally for the blood draw from the jugular or ventral tail vein. An anesthetic nose-cone was placed on the nose of the rat allowing isoflurane and oxygen (100%) to be delivered through a Bain circuit. After obtaining blood, the rats were allowed to recover in a shoebox cage with a heat lamp positioned over the top of the cage. Once the rats were awake and moving freely around the recovery cage, they are placed back in their normal cages. Total time for procedure is ˜15-20 minutes per rat.
(§2) N-(4-{[4-(3,4-dichlorophenyl)-1,3-thiazol-2-yl]amino}phenyl)acetamide hydrobromide was mixed with DMSO (solvent) in increasing dosages, which were feed to laboratory rats. Rats received the preparations via oral drops. Daily observations were recorded concerning (i) weight changes and (ii) mortality. […]
The vertebrate SCP-2 is involved in cholesterol metabolism, therefore, cholesterol homeostasis is advantageously monitored when SCP-2 inhibitors are tested in mammalian species. […]

rats [3] = assay: Total serum cholesterol levels in rats; assay type: in vivo, rat; conditions: oral, varying concentrations for 5 days, all treated animals (FIG. 2)
Method: as §1
as §2, with “mortality. Blood samples were taken every three weeks for testing cholesterol levels and for testing Alanine Aminotransferase (ALT) for liver function.” for “mortality.”

## Br.CC(=O)Nc1ccc(Nc2nc(-c3ccc(Cl)c(Cl)c3)cs2)cc1 [N-(4-{[4-(3,4-dichlorophenyl)-1,3-thiazol-2-yl]amino}phenyl)acetamide hydrobromide]
[1]
  effect on growth rate: insignificant
Rats [2]
  serum ALT levels, control (0 mg/kg) vs treated animals: no significant difference
Rats [3]
  total serum cholesterol levels: significant decrease
